According to US9790185B2, “Process for the preparation of regorafenib and its crystalline forms” (SHILPA MEDICARE LIMITED, priority 2014, dated 2017):
Like-named read-outs stand apart in the source and are kept apart here.

How the values were obtained:
[1] = cited from earlier work
[2] = background description of the drug substance; cited from earlier work
[3] = system: tumour models including colorectal tumour models; details: preclinical studies; broad spectrum of tumour models including colorectal; mediated by antiangiogenic and antiproliferative effects; cited from earlier work
[4] = Stability on handling and storage of crystalline forms; details: without any significant or measurable change in morphology and physicochemical characteristics
Text: (§1) The merit of the process according to the present invention resides in that product isolated after drying is directly obtained as crystalline Form I of Regorafenib (I). Said material is found devoid of any other crystal lattice and is adequately stable to handle and store for longer time (at least up to more than 6 months) without any significant or measurable change in its morphology and physicochemical characteristics. Crystalline Form I of Regorafenib (I) obtained according to the process of the present invention results in the final API purity by of more than 99.5% w/w, and found to be anhydrous with moisture content of not more than 0.5%.
as §1, with “Form III” for “Form I”, “by HPLC” for “by”

SMILES | solubility ([1]; in 2-propanol) | solubility ([1]; in PEG 400 (macrogol)) | solubility ([1]; in acetone) | solubility ([1]; in acetonitrile) | solubility ([1]; in dichloromethane) | solubility ([1]; in dilute acid solution) | solubility ([1]; in dilute alkaline solution) | solubility ([1]; in ethanol) | solubility ([1]; in ethyl acetate) | solubility ([1]; in glycerine) | solubility ([1]; in methanol) | solubility ([1]; in n-heptane) | solubility ([1]; in propylene glycol) | solubility ([1]; in toluene) | solubility ([1]; in water) | hygroscopicity [2] | antitumour activity [3] | time adequately stable to handle and store [4]
CNC(=O)c1cc(Oc2ccc(NC(=O)Nc3ccc(Cl)c(C(F)(F)F)c3)c(F)c2)ccn1 [Regorafenib, 4-[4-({[4-chloro-3-(trifluoromethyl)phenyl]carbamoyl}amino)-3-fluorophenoxy]-N-methylpyridine-2-carboxamide] | slightly soluble | soluble | sparingly soluble | slightly soluble | slightly soluble | practically insoluable | practically insoluable | slightly soluble | slightly soluble | practically insoluable | slightly soluble | practically insoluable | slightly soluble | practically insoluable | practically insoluable | not hygroscopic | demonstrated antitumour activity | 
CNC(=O)c1cc(Oc2ccc(NC(=O)Nc3ccc(Cl)c(C(F)(F)F)c3)c(F)c2)ccn1 [crystalline Form I of Regorafenib (I), 4-[4-({[4-chloro-3-(trifluoromethyl)phenyl]carbamoyl}amino)-3-fluorophenoxy]-N-methylpyridine-2-carboxamide] |  |  |  |  |  |  |  |  |  |  |  |  |  |  |  |  |  | more than 6 months
